# Results from patent US8680012B2, “4-phenyl-pyrane-3,5-diones,4-phenyl-thiopyrane-3,6-diones and cyclohexanetriones as novel herbicides” (Syngenta Crop Protection LLC, priority 2006, dated 2014).
# Columns and labels:
# Assay type in all cases: in vivo
# Avena fatua (AVEFA) [1] = assay: Example B pre-emergence herbicidal activity, glasshouse pot test; conditions: 312 h, evaluated after 13 days, read-out: Pre-emergence activity AVEFA (100=total damage to plant; 0=no damage to plant); for pest or weed control at 250 g/ha: rate 250 g/ha; for pest or weed control at 1000 g/ha: rate 1000 g/ha
# Summary of the method: (§1)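 Herbicidal effect was judged 13 days after treatment as percent-style damage (100 = total kill). Seeds in standard soil had grown 1 day (pre) or 8 days (post) in a 24/16 °C, 14 h light, 65% humidity glasshouse before spraying with compound in acetone/water (50:50) containing 0.5% Tween 20.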
# Solanum nigrum (SOLNI) [2] = assay: as above; conditions: 312 h, evaluated after 13 days, read-out: Pre-emergence activity SOLNI (100=total damage to plant; 0=no damage to plant); for pest or weed control at 250 g/ha: rate 250 g/ha; for pest or weed control at 1000 g/ha: rate 1000 g/ha
# Summary of the method: as §1
# [3] = tested on: Amaranthus retroflexus (AMARE); assay: as above; conditions: 312 h, evaluated after 13 days, read-out: Pre-emergence activity AMARE (100=total damage to plant; 0=no damage to plant); for pest or weed control at 250 g/ha: rate 250 g/ha; for pest or weed control at 1000 g/ha: rate 1000 g/ha
# Summary of the method: as §1
# [4] = tested on: Alopecurus myosuroides (ALOMY); assay: as above; conditions: 312 h, evaluated after 13 days, read-out: Pre-emergence activity ALOMY (100=total damage to plant; 0=no damage to plant); for pest or weed control at 250 g/ha: rate 250 g/ha; for pest or weed control at 1000 g/ha: rate 1000 g/ha
# Summary of the method: as §1
# [5] = tested on: Echinochloa crus-galli (ECHCG); assay: as above; conditions: 312 h, evaluated after 13 days, read-out: Pre-emergence activity ECHCG (100=total damage to plant; 0=no damage to plant); for pest or weed control at 250 g/ha: rate 250 g/ha; for pest or weed control at 1000 g/ha: rate 1000 g/ha
# Summary of the method: as §1
# Setaria faberi (SETFA) [6] = assay: as above; conditions: 312 h, evaluated after 13 days, read-out: Pre-emergence activity SETFA (100=total damage to plant; 0=no damage to plant); for pest or weed control at 250 g/ha: rate 250 g/ha; for pest or weed control at 1000 g/ha: rate 1000 g/ha
# Summary of the method: as §1
# Avena fatua (AVEFA) [7] = assay: Example B post-emergence herbicidal activity, glasshouse pot test; conditions: 312 h, evaluated after 13 days, read-out: Post-emergence activity AVEFA (100=total damage to plant; 0=no damage to plant); for pest or weed control at 250 g/ha: rate 250 g/ha; for pest or weed control at 1000 g/ha: rate 1000 g/ha
# Summary of the method: as §1
# Solanum nigrum (SOLNI) [8] = assay: as above; conditions: 312 h, evaluated after 13 days, read-out: Post-emergence activity SOLNI (100=total damage to plant; 0=no damage to plant); for pest or weed control at 250 g/ha: rate 250 g/ha; for pest or weed control at 1000 g/ha: rate 1000 g/ha
# Summary of the method: as §1
# [9] = tested on: Amaranthus retroflexus (AMARE); assay: as above; conditions: 312 h, evaluated after 13 days, read-out: Post-emergence activity AMARE (100=total damage to plant; 0=no damage to plant); for pest or weed control at 250 g/ha: rate 250 g/ha; for pest or weed control at 1000 g/ha: rate 1000 g/ha
# Summary of the method: as §1
# [10] = tested on: Alopecurus myosuroides (ALOMY); assay: as above; conditions: 312 h, evaluated after 13 days, read-out: Post-emergence activity ALOMY (100=total damage to plant; 0=no damage to plant); for pest or weed control at 250 g/ha: rate 250 g/ha; for pest or weed control at 1000 g/ha: rate 1000 g/ha
# Summary of the method: as §1
# [11] = tested on: Echinochloa crus-galli (ECHCG); assay: as above; conditions: 312 h, evaluated after 13 days, read-out: Post-emergence activity ECHCG (100=total damage to plant; 0=no damage to plant); for pest or weed control at 250 g/ha: rate 250 g/ha; for pest or weed control at 1000 g/ha: rate 1000 g/ha
# Summary of the method: as §1
# Setaria faberi (SETFA) [12] = assay: as above; conditions: 312 h, evaluated after 13 days, read-out: Post-emergence activity SETFA (100=total damage to plant; 0=no damage to plant); for pest or weed control at 250 g/ha: rate 250 g/ha; for pest or weed control at 1000 g/ha: rate 1000 g/ha
# Summary of the method: as §1
SMILES,pest or weed control at 250 g/ha (Avena fatua (AVEFA) [1]),pest or weed control at 250 g/ha (Solanum nigrum (SOLNI) [2]),pest or weed control at 250 g/ha [3],pest or weed control at 250 g/ha [4],pest or weed control at 250 g/ha [5],pest or weed control at 250 g/ha (Setaria faberi (SETFA) [6]),pest or weed control at 250 g/ha (Avena fatua (AVEFA) [7]),pest or weed control at 250 g/ha (Solanum nigrum (SOLNI) [8]),pest or weed control at 250 g/ha [9],pest or weed control at 250 g/ha [10],pest or weed control at 250 g/ha [11],pest or weed control at 250 g/ha (Setaria faberi (SETFA) [12]),pest or weed control at 1000 g/ha (Avena fatua (AVEFA) [1]),pest or weed control at 1000 g/ha (Solanum nigrum (SOLNI) [2]),pest or weed control at 1000 g/ha [3],pest or weed control at 1000 g/ha [4],pest or weed control at 1000 g/ha [5],pest or weed control at 1000 g/ha (Setaria faberi (SETFA) [6]),pest or weed control at 1000 g/ha (Avena fatua (AVEFA) [7]),pest or weed control at 1000 g/ha (Solanum nigrum (SOLNI) [8]),other results
Cc1ccc(-c2ccc(Cl)c(F)c2)cc1C1=C(O)C(C)(C)C(=O)C(C)(C)C1=O [Compound B-23],0%,0%,0%,0%,10%,0%,0%,0%,0%,30%,60%,70%,–,–,–,–,–,–,–,–,–
CCc1ccc(-c2ccc(Cl)cc2OC)cc1C1=C(O)C(C)(C)C(=O)C(C)(C)C1=O [Compound B-25],0%,0%,0%,0%,0%,0%,0%,0%,0%,20%,70%,20%,–,–,–,–,–,–,–,–,–
CCc1ccc(-c2ccc(Cl)c(C#N)c2)cc1C1=C(O)C(C)(C)C(=O)C(C)(C)C1=O [Compound B-27],0%,0%,0%,0%,0%,0%,0%,0%,0%,70%,80%,60%,–,–,–,–,–,–,–,–,–
CCc1ccc(-c2cnc(Cl)cc2C)cc1C1=C(O)C(C)(C)C(=O)C(C)(C)C1=O [Compound B-28],0%,0%,0%,0%,0%,0%,0%,0%,0%,0%,70%,70%,–,–,–,–,–,–,–,–,–
CCc1ccc(-c2ccc(Cl)nc2Cl)cc1C1=C(O)C(C)(C)C(=O)C(C)(C)C1=O [Compound B-29],0%,0%,0%,0%,20%,30%,0%,30%,20%,30%,100%,80%,–,–,–,–,–,–,–,–,–
CCc1ccc(-c2ccc(Cl)nc2C)cc1C1=C(O)C(C)(C)C(=O)C(C)(C)C1=O [Compound B-30],0%,0%,0%,0%,0%,0%,0%,10%,0%,20%,70%,70%,–,–,–,–,–,–,–,–,–
CCc1ccc(-c2ccc(Cl)cc2F)cc1C1=C(O)C(C)(C)C(=O)C(C)(C)C1=O [Compound B-31],20%,0%,0%,0%,50%,50%,0%,0%,0%,10%,90%,90%,–,–,–,–,–,–,–,–,–
CCc1ccc(-c2ccc(Cl)cc2)cc1C1=C(OC(C)=O)C(C)(C)OC(C)(C)C1=O [Compound D-7],–,–,–,–,–,–,–,–,–,–,–,–,30%,0%,0%,60%,90%,100%,70%,0%,pest or weed control at 1000 g/ha [9]: 0%; pest or weed control at 1000 g/ha [10]: 90%; pest or weed control at 1000 g/ha [11]: 100%; pest or weed control at 1000 g/ha (Setaria faberi (SETFA) [12]): 100%
CCC(=O)OC1=C(c2cc(-c3ccc(Cl)cc3)ccc2CC)C(=O)C(C)(C)OC1(C)C [Compound D-8],–,–,–,–,–,–,–,–,–,–,–,–,0%,0%,0%,40%,90%,90%,10%,0%,pest or weed control at 1000 g/ha [9]: 0%; pest or weed control at 1000 g/ha [10]: 60%; pest or weed control at 1000 g/ha [11]: 100%; pest or weed control at 1000 g/ha (Setaria faberi (SETFA) [12]): 100%
CCc1ccc(-c2ccc(Cl)cc2)cc1C1=C(OC(=O)C(C)C)C(C)(C)OC(C)(C)C1=O [Compound D-9],–,–,–,–,–,–,–,–,–,–,–,–,0%,0%,0%,20%,70%,90%,0%,0%,pest or weed control at 1000 g/ha [9]: 0%; pest or weed control at 1000 g/ha [10]: 30%; pest or weed control at 1000 g/ha [11]: 100%; pest or weed control at 1000 g/ha (Setaria faberi (SETFA) [12]): 90%
CCc1ccc(-c2ccc(Cl)cc2)cc1C1=C(OC(=O)C2CC2)C(C)(C)OC(C)(C)C1=O [Compound D-10],–,–,–,–,–,–,–,–,–,–,–,–,0%,0%,0%,50%,100%,100%,20%,0%,pest or weed control at 1000 g/ha [9]: 20%; pest or weed control at 1000 g/ha [10]: 90%; pest or weed control at 1000 g/ha [11]: 100%; pest or weed control at 1000 g/ha (Setaria faberi (SETFA) [12]): 100%
CCc1ccc(-c2ccc(Cl)cc2)cc1C1=C(OC(=O)C(C)CC)C(C)(C)OC(C)(C)C1=O [Compound D-11],–,–,–,–,–,–,–,–,–,–,–,–,0%,0%,0%,20%,20%,90%,0%,0%,pest or weed control at 1000 g/ha [9]: 0%; pest or weed control at 1000 g/ha [10]: 40%; pest or weed control at 1000 g/ha [11]: 100%; pest or weed control at 1000 g/ha (Setaria faberi (SETFA) [12]): 90%
